Experimental data from patent US11590134B2, “Aminopyrimidine amide autophagy inhibitors and methods of use thereof” (Deciphera Pharmaceuticals, LLC, priority 2019, dated 2023).

Assays:
[1] = target: T1, ULK1 kinase (Homo sapiens, UniProt O75385); experiment: Biochemical assay for ULK1.2 (coupled pyruvate kinase/lactate dehydrogenase assay); settings: 19 nM ULK1 (residues 1-314), myelin basic protein substrate, 1 mM ATP
T1 construct: purchased Eurofins 14-959
T1 sequence (O75385 with tags, fused parts or gaps): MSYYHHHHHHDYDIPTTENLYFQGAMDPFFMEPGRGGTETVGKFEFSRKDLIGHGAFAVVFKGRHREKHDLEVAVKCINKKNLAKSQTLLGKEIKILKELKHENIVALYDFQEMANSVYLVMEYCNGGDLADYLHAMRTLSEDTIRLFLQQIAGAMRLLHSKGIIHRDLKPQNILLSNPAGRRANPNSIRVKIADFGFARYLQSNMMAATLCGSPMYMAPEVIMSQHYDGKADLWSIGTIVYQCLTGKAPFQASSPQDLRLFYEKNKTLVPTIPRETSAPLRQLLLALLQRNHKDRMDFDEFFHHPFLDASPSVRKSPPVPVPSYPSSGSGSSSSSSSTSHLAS
Method: (§1) Activity of ULK1 kinase was determined spectroscopically using a coupled pyruvate kinase/lactate dehydrogenase assay that continuously monitors the ATP hydrolysis-dependent oxidation of NADH (e.g., Schindler et al. Science (2000) 289: 1938-1942). Assays were conducted in 384-well plates (100 uL final volume) using 19 nM ULK1 (Eurofins CAT #14-959), 0.25 mg/mL myelin basic protein, 1.5 units pyruvate kinase, 2.1 units lactate dehydrogenase, 1 mM phosphoenol pyruvate, 0.28 mM NADH and 1 mM ATP in assay buffer (100 mM Tris, pH 7.5, 15 mM MgCl2, 0.5 mM DTT, 0.1% octyl-glucoside, 0.002% (w/v) BSA, and 0.002% Triton X-100). Inhibition of ULK1 was measured by adding serial diluted test compound (final assay concentration of 1% DMSO). A decrease in absorption at 340 nm was monitored continuously for 6 hours at 30° C. on a multi-mode microplate reader (BioTek). The reaction rate was calculated using the 2-3 h time frame. The reaction rate at each concentration of compound was converted to percent inhibition using controls (i.e. reaction with no test compound and reaction with a known inhibitor) and IC50 values were calculated by fitting a four-parameter sigmoidal curve to the data using Prism (GraphPad software).

[2] = target: T2, ULK2 kinase (Homo sapiens, UniProt Q8IYT8); experiment: Biochemical assay for ULK2 (coupled pyruvate kinase/lactate dehydrogenase assay); settings: 9.7 nM ULK2 (residues 1-306), myelin basic protein substrate, 1 mM ATP; read-out: ULK2.2
T2 construct: purchased Eurofins 14-772
Method: as §1, with “of ULK2” for “of ULK1”, “using 9.7” for “using 19”, “nM ULK2” for “nM ULK1”, “CAT #14-772),” for “CAT #14-959),”

[3] = system: ULK kinase substrate ATG13 (phospho-Serine 318 ATG13) in A549 cells; experiment: pATG13 ELISA in mutant KRas A549 cells in combination with trametinib; format: cell-based; settings: A549 (KRAS mutant) human lung cancer cells, with 250 nM trametinib, overnight
Method: (§2) A549 (KRAS mutant) human lung cancer cells (6,000 cells/well) were added to a 384-well tissue-culture treated plate in 50 μL of pre-warmed DMEM medium supplemented with 10% characterized fetal bovine serum (Invitrogen, Carlsbad, Calif.), 100 units/mL penicillin G, and 100 μg/mL streptomycin and allowed to grow overnight at 37° C., 5% CO2, and 95% humidity. The following day, 10 μL of media containing trametinib or DMSO as a control was added to wells. The final concentration of trametinib in wells was 250 nM. A dose response of a test compound (0.6 μL per well) was added. DMSO (0.6 μL) was added to control wells. The plate was briefly shaken to mix wells and then incubated at 37° C. overnight. The next day, the media was aspirated and cells were washed with Dulbecco's Phosphate Buffered Saline (Gibco). Cells were lysed using MPER lysis buffer (Pierce, Rockford, Ill.) containing Halt Phosphatase and Protease Inhibitors (Pierce, Rockford, Ill.) and Phosphatase inhibitor cocktail 2 (Sigma, St. Louis, Mo.) at 4° C. for 10 minutes with shaking.
(§3) Cellular levels of phospho-Serine 318 ATG13 (pATG13) were measured via an ELISA method. Total ATG13 Antibody (Cell Signaling Cat #13273) was used to coat the wells. The plate was incubated at 4° C. overnight and washed with ELISA wash buffer (Biolegend Cat #421601). The wells were then blocked with assay diluent (Biolegend Cat #421203) for 1 hour at room temperature. Plate wells were washed with ELISA wash buffer. Cell lysate was added to wells and incubated at room temperature for 2 hours. Plate wells were washed with ELISA wash buffer. Biotinylated pS318-ATG13 antibody (Rockland Immunochemicals Cat #600-401-C49) was diluted in assay diluent and added to each well and incubated at room temperature for 1 hour. Plate wells were washed with ELISA wash buffer. Streptavidin linked to horseradish peroxidase (Thermo Fisher Cat #21140) was diluted in assay diluent and added to each well and incubated at room temperature for 1 hour. Plate wells were washed with ELISA wash buffer. High sensitivity TMB substrate (Biolegend Cat #421101) was added to each well and incubated at room temperature for 20 minutes. The reaction was stopped with 2N Sulfuric Acid. The plate was analyzed at on a plate reader measuring absorbance at 450 nm and 540 nm (background). Signal was calculated by first subtracting the background absorbance at 540 nm from the absorbance at 450 nm for each well. Next, the background corrected absorbance at 450 nm from blank wells was subtracted from test wells. Data was compared to control wells to determine % ATG13 phosphorylation. GraphPad Prism was used to calculate IC50 values.

[4] = system: ULK kinase substrate ATG13 (phospho-Serine 318 ATG13) in MiaPaCa-2 cells; experiment: pATG13 ELISA in mutant KRas MiaPaCa-2 cells in combination with trametinib; format: cell-based; settings: MiaPaCa-2 human pancreatic cancer cells, with 250 nM trametinib, overnight
Method: as §2, with “MiaPaCa-2” for “A549 (KRAS mutant)”, “pancreatic” for “lung”, “(10000” for “(6,000”, “G,” for “G, and”, “streptomycin, and 2.5% Horse Serum” for “streptomycin”
as §3

[5] = target: T3, ULK1 kinase (Homo sapiens, UniProt O75385, E37A/K38A); experiment: Biochemical assay for ULK1.3 (coupled pyruvate kinase/lactate dehydrogenase assay); settings: 0.1 nM ULK1 (residues 1-283), peptide substrate, 1 mM ATP
T3 construct: (residues 1-283; ID NO: 2); purchased Beryllium
T3 sequence (O75385 1-283 E37A/K38A): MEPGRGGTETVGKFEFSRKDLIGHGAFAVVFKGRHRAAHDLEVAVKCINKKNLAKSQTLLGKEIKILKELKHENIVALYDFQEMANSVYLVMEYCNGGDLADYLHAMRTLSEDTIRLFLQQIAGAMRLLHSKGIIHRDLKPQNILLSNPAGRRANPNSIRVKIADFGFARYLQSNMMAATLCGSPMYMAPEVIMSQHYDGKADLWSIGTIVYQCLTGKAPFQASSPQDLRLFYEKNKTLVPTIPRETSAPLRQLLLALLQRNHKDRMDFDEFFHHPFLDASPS
Method: Activity of ULK1 kinase was determined spectroscopically using a coupled pyruvate kinase/lactate dehydrogenase assay that continuously monitors the ATP hydrolysis-dependent oxidation of NADH (e.g., Schindler et al. Science (2000) 289: 1938-1942). Assays were conducted in 384-well plates (100 uL final volume) using 0.1 nM ULK1 (from Beryllium), 0.075 mM peptide substrate (YANWLAASIYLDGKKK (SEQ ID NO: 5)), 1.5 units pyruvate kinase, 2.1 units lactate dehydrogenase, 1 mM phosphoenol pyruvate, 0.28 mM NADH and 1 mM ATP in assay buffer (100 mM Tris, pH 7.5, 15 mM MgCl2, 0.5 mM DTT, 0.004% (w/v) BSA, and 0.004% Triton X-100). Inhibition of ULK1 was measured by adding serial diluted test compound (final assay concentration of 1% DMSO). A decrease in absorption at 340 nm was monitored continuously for 6 hours at 30° C. on a multi-mode microplate reader (BioTek). The reaction rate was calculated using the 2-3 h time frame. The reaction rate at each concentration of compound was converted to percent inhibition using controls (i.e. reaction with no test compound and reaction with a known inhibitor) and IC50 values were calculated using software routines in Prism (GraphPad software).

[6] = target: T4, LRRK2 kinase (Homo sapiens, UniProt Q5S007); experiment: Biochemical assay for LRRK2 (coupled pyruvate kinase/lactate dehydrogenase assay); settings: 26.4 nM LRRK2 (residues 970-2528), peptide substrate, 1 mM ATP
T4 construct: (residues 970-2528; ID NO; 4); purchased Thermo Fisher
Method: Activity of LRRK2 kinase was determined spectroscopically using a coupled pyruvate kinase/lactate dehydrogenase assay that continuously monitors the ATP hydrolysis-dependent oxidation of NADH (e.g., Schindler et al. Science (2000) 289: 1938-1942). Assays were conducted in 384-well plates (100 uL final volume) using 26.4 nM LRRK2 (Thermo Fisher), 0.1 mM peptide substrate (RLGRDKYKTLRQIRQ (SEQ ID NO: 6)), 1.5 units pyruvate kinase, 2.1 units lactate dehydrogenase, 1 mM phosphoenol pyruvate, 0.28 mM NADH and 1 mM ATP in assay buffer (100 mM Tris, pH 7.5, 15 mM MgCl2, 0.5 mM DTT, 0.004% (w/v) BSA, and 0.004% Triton X-100). Inhibition of LRRK2 was measured by adding serial diluted test compound (final assay concentration of 1% DMSO). A decrease in absorption at 340 nm was monitored continuously for 6 hours at 30° C. on a multi-mode microplate reader (BioTek). The reaction rate was calculated using the 2-3 h time frame. The reaction rate at each concentration of compound was converted to percent inhibition using controls (i.e. reaction with no test compound and reaction with a known inhibitor) and IC50 values were calculated using software routines in Prism (GraphPad software).

T2 sequence (Q8IYT8 with tags, fused parts or gaps): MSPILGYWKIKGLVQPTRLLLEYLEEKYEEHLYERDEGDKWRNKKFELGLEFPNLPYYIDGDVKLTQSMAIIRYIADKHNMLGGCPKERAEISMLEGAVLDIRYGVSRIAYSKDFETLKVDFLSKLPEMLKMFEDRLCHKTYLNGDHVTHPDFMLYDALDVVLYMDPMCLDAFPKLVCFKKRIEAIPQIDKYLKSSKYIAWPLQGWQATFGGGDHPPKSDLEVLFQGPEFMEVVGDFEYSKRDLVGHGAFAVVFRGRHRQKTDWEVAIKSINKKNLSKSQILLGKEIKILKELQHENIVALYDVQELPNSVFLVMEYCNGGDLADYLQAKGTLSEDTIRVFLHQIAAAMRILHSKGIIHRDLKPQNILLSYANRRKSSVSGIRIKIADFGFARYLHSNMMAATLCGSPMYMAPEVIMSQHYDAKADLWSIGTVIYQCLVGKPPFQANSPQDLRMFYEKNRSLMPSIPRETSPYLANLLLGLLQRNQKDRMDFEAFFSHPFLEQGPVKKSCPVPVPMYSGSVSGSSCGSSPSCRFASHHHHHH
T4 sequence (Q5S007 with tags, fused parts or gaps): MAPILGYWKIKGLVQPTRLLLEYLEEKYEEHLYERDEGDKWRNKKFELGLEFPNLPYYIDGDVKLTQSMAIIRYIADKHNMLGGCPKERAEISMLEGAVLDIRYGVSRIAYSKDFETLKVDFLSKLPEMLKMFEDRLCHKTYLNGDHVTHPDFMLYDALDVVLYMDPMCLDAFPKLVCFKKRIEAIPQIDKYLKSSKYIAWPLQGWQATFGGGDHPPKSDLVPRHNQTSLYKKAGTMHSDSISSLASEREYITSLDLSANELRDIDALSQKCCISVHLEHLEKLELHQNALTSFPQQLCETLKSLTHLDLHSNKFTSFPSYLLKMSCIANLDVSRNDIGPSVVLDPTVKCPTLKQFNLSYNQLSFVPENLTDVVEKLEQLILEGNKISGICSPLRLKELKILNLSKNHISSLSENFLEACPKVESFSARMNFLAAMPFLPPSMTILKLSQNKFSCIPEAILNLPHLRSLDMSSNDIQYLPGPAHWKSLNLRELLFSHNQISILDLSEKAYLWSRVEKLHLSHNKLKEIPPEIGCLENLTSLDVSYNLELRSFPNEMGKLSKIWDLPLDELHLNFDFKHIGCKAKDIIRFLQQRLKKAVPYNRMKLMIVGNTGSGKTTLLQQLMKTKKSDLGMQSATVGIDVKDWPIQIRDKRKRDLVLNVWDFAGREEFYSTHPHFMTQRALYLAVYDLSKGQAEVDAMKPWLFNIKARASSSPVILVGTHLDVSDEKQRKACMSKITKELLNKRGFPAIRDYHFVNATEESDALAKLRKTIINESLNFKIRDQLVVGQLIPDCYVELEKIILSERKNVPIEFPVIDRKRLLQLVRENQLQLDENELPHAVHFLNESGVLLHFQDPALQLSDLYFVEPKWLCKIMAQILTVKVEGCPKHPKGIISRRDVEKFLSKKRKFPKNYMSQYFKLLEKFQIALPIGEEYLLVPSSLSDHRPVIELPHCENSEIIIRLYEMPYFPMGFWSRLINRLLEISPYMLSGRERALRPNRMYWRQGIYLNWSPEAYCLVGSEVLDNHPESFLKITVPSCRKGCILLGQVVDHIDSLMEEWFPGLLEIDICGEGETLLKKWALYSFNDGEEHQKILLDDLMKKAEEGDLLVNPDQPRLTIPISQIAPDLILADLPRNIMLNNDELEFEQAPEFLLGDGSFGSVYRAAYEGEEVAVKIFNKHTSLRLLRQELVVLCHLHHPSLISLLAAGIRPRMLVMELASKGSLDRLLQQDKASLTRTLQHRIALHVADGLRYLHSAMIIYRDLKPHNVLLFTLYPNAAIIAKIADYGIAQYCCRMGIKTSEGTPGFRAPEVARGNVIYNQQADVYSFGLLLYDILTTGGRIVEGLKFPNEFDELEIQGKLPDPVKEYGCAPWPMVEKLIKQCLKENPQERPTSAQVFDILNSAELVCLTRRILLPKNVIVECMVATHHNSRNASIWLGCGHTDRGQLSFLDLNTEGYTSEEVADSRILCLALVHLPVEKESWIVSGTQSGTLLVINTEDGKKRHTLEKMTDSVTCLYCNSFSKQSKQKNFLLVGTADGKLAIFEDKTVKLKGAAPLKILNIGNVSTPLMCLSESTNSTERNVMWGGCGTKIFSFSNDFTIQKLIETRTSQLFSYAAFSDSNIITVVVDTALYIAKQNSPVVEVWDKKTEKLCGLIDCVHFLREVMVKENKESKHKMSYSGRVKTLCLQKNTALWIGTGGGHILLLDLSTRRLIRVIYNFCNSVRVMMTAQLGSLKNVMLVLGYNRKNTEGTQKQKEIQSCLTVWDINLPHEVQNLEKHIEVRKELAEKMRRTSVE

An IC50 [1] of 1 to 25 nM, an IC50 [2] of 25 to 100 nM and an IC50 [3] of 100 to 300 nM were found for `CCc1cc(N2CCN(C)CC2)ccc1Nc1ncc(C(F)(F)F)c(NCCCNC(=O)C2CCC2)n1` [Example 1, N-(3-((2-((2-ethyl-4-(4-methylpiperazin-1-yl)phenyl)amino)-5-(trifluoromethyl)pyrimidin-4-yl)amino)propyl)cyclobutanecarboxamide] in this work. It also gave an IC50 [4] of 10 to 100 nM.

An IC50 [5] of 25 to 100 nM, an IC50 [2] of 100 to 500 nM and an IC50 [6] of 100 to 300 nM were found for `CCc1cc(N2CCN(C)CC2)ccc1Nc1ncc(Br)c(NCCCNC(=O)C2CCC2)n1` [Example 7] in this work.

An IC50 [5] of 25 to 100 nM, an IC50 [2] of 100 to 500 nM and an IC50 [6] of 100 to 300 nM were found for `CN1CCN(c2ccc(Nc3ncc(Br)c(NCCCNC(=O)C4CCC4)n3)c(C3CC3)c2)CC1` [Example 9] in this work.

An IC50 [5] of 500 to 20000 nM, an IC50 [2] of 500 to 20000 nM and an IC50 [6] of 100 to 300 nM were found for `CC(C)Oc1cc(N2CCN(C)CC2)ccc1Nc1ncc(Cl)c(NCCCNC(=O)C2CCC2)n1` [Example 10] in this work.

An IC50 [5] of 500 to 20000 nM, an IC50 [2] of 500 to 20000 nM and an IC50 [6] of 600 to 20000 nM were found for `CCc1cc(N2CCN(C)CC2)ccc1Nc1ncc(C2CC2)c(NCCCNC(=O)C2CCC2)n1` [Example 19] in this work.

An IC50 [5] of 500 to 20000 nM, an IC50 [2] of 500 to 20000 nM and an IC50 [6] of 1 to 100 nM were found for `Cc1nn(C(C)(C)C(N)=O)cc1Nc1ncc(C(F)(F)F)c(NCCCNC(=O)C2CCC2)n1` [Example 26, N-(3-((2-((1-(1-amino-2-methyl-1-oxopropan-2-yl)-3-methyl-1H-pyrazol-4-yl)amino)-5-(trifluoromethyl)pyrimidin-4-yl)amino)propyl)cyclobutanecarboxamide] in this work.

An IC50 [5] of 100 to 500 nM, an IC50 [2] of 500 to 20000 nM and an IC50 [6] of 1 to 100 nM were found for `Cc1nn(C(C)(C)C#N)cc1Nc1ncc(C(F)(F)F)c(NCCCNC(=O)C2CCC2)n1` [Example 30, N-(3-((2-((1-(2-cyanopropan-2-yl)-3-methyl-1H-pyrazol-4-yl)amino)-5-(trifluoromethyl)pyrimidin-4-yl)amino)propyl)cyclobutanecarboxamide] in this work.
